Test results: article PMC7754465, “Multiparameter Kinetic Analysis for Covalent Fragment Optimization by Using Quantitative Irreversible Tethering (qIT)” (Chembiochem, 2020)
Like-named read-outs stand apart in the source and are kept apart here.

Target: T1, Cdk2(ES) = Cdk2(F80C,C177A) (Homo sapiens, UniProt P24941, C177A/F80C)
T1 construct: GST (N, cleaved yes); made in house; host or cells: E. coli Tuner(DE3)
Assay: quantitative irreversible tethering (qIT): rate of cysteine modification of Cdk2(ES)
Assay type: binding
Details: for rate enhancement factor (REF): rate with Cdk2(ES) relative to rate with GSH, thiol 5 μM
Description: Figure 2 Comparison of previous and current applications of Quantitative irreversible tethering (qIT). a) Overview of rate determination. A cysteine‐containing biomolecule is treated with covalent fragments under pseudo‐first‐order conditions. Reaction progress is followed by discrete measurement of free cysteine concentration by using the fluorogenic probe CPM, and rate constants (k obs) are derived from exponential regression analysis. b) Comparison of the reactivity profile of each fragment with the POI and GSH typically classes them as unreactive, reactive but non‐selective or reactive and selective. c) Quantification of kinetic POI/GSH selectivity facilitates hit identification. d) The observed rate of reaction between the POI and hit fragment is determined at a range of ligand concentrations by using qIT. Subsequent hyperbolic regression analysis is used to derive K i and k inact to facilitate comprehensive covSAR analysis.
Therefore, we set out to develop novel classes of electrophile sensitive kinase inhibitors using a covalent fragment approach. Accordingly, we screened a 138‐member library of diverse cysteine‐reactive fragments at 500 μM against Cdk2(ES) and GSH by using the qIT platform and monitored the kinetics of cysteine‐modification over 24 hours. […] Using three standard deviations over the geometric mean REF as the statistical cut‐off for defining hit fragments (REF >27.9) yielded two acrylamide fragments, tetrahydroquinoline 1 (REF=81) and pyrimidine S1 (REF=64) for further investigation (Figures 3c and S2). […]
D. Rate determination by qIT
Reaction-plate setup: Each well of a 96-well PCR plate was charged with 60–100 µL of target thiol (GSH or protein, 10 µM) and 4% w/v TCEP-agarose beads in 100 mM phosphate buffer (pH 7.5 or 8) and cooled to 4 °C. Reactions were started by addition of an equal volume of pre-cooled electrophile solution (1 mM, 2% DMSO) in 0.1 M phosphate buffer (final concentra-tion: thiol = 5 µM, electrophile = 0.5 mM, 2% w/v TCEP-agarose beads), with a minimum of 4 wells per plate used as DMSO/thiol only controls. After mixing, TCEP-agarose was pelleted by centrifugation (1,300 rpm, 1 min) and the plate incu-bated at 4 °C. CPM Quench: At a series of time points (typically around 0.25, 0.5, 1, 2, 6, 24, 48, 72 and 120 hours after reac-tion initiation), 3 µL aliquots of each reaction were quenched into a 384-well fluorescence plate (Corning – black, NBS) where each well was charged with 27 µL of CPM solution (1.39 µM) in 100 mM phosphate buffer (pH 7.5) (final concentration: thiol = 0.5 µM, CPM = 1.25 µM). Quenching was typically performed in duplicate and fluorescence plates were incubated at room temperature for 60 minutes before fluorescence intensity (excitation/emission: 384/470 nm) was measured on an EnVisionTM plate reader. Analysis: All analysis was performed using Prism 8.0 software (GraphPad). For each time point, the fluorescence of each reaction was normalized relative Cdk2(ES)/GSH only control = maximum signal, DMSO only = minimum signal. The normalized fluorescence for each reaction was plotted against time. A one phase exponential decay was fitted to each plot (Constraints: Y(0) > 0.8; 0 < plateau = 0), yielding a pseudo first-order rate constant.
Cdk2 mutations were introduced by PCR and cloned into pGEX6P1 Cdk2 (552), a gift from Jonathon Pines (Addgene plasmid # 61845) used to express GST-Cdk2(WT). GST-Cdk2(ES) = GST-Cdk2(F80C,C177A). All constructs were verified by se-quencing. pGEX6P1 cyclin A2 (amino acids 173-432) was generated by PCR and restriction digestion. GST-CAK1 was con-structed by PCR amplification of S.cerevisiae genomic DNA and the product cloned into pKEG-KG. All protein expression was performed using an adapted autoinduction protocol:[8] Plasmids were transformed into E. coli Tuner(DE3) and cultures grown in autoinduction media at 37 °C until OD600 = 0.9. The cultures were then incubated at 18 °C for a further 40 hours before […]

[1] = fragment 0.5 mM, Cdk2(ES) 5 μM, read-out: Cdk2(ES): kobs/[I]

SMILES | rate enhancement factor (REF) (fragment 0.5 mM) | kinact/KI at 500 µM [1] | kinact/KI at 500 µM (Cdk2(ES) (5 μM) + 6 (500 μM), Figure 6c, read-out: kobs/[I] with Cdk2(ES)) | covalent SAR by REF-based qIT analysis (compared with acrylamide 1 or parent analogue) | rate of reaction with Cdk2(ES) relative to acrylamide 1 (qIT)
C=CC(=O)Nc1ccc(-c2ncccn2)cc1 [S1] | 64 |  |  |  | 
C=CC(=O)N1CCCc2cc(C(=O)OC)ccc21 [compound 1] | 81 | 1.31 M⁻¹ s⁻¹ |  |  | 
C=CC(=O)N1CCN(CC)c2ccccc21 [compound 6] |  | 0.1 M⁻¹ s⁻¹ | 0.105 M⁻¹ s⁻¹ | maintained a similar REF | ten times more slowly than acrylamide 1
